Assay results as given in publication PMC3428502 (Brain research, 2012).
“Also recorded” adds a separate entry of the source.

Experiments:
PC6-3 cells [1] = test: Flow cytometry with DCF-DA for hydrogen peroxide; type: cell-based, rat; conditions: 5 and 10 μM, 1 h, vs control cells
[2] = molecular target: T1, tyrosine hydroxylase (TH) (Rattus norvegicus, UniProt P04177); conditions: 1.0 μM; modified from previously published results; ref Mexas et al., 2011; cited from earlier work
[3] = molecular target: T1, tyrosine hydroxylase (TH); test: TH activity in whole dopaminergic PC6-3 cells; type: cell-based; conditions: for TH inhibition in PC6-3 cells: 2 h; for inhibition at 20 µM: read-out: TH inhibition in PC6-3 cells
PC6-3 cells [4] = test: Flow cytometry with DHE for superoxide anion; type: cell-based, rat; conditions: 10 μM, 1 h incubation, vs control cells
PC6-3 cells [5] = test: Intracellular concentration in PC6-3 cells by HPLC; type: in vitro ADME, rat
BSA [6] = molecular target: T2, BSA (Bos taurus, UniProt P02769); conditions: compared to DOPAL; ref Rees et al., 2009; cited from earlier work
PC6-3 cells [7] = test: MTT assay of mitochondrial function; type: cell-based; conditions: for change of mitochondrial function (MTT), in words: 5, 10, 25, 50 μM; for mitochondrial dysfunction: 50 μM
[8] = molecular target: T1, tyrosine hydroxylase (TH); test: TH activity in PC6-3 cell lysate; type: biochemical; conditions: read-out: inhibition of L-DOPA production in cell lysate
BSA [9] = molecular target: T2, BSA; test: Relative protein reactivity with BSA; conditions: 100 μM, BSA 1 mg/mL, 4 h, 37°C, compared to DOPAL
[10] = 20 μM placed exogenously on PC6-3 cells

T2 sequence (P02769 25-607): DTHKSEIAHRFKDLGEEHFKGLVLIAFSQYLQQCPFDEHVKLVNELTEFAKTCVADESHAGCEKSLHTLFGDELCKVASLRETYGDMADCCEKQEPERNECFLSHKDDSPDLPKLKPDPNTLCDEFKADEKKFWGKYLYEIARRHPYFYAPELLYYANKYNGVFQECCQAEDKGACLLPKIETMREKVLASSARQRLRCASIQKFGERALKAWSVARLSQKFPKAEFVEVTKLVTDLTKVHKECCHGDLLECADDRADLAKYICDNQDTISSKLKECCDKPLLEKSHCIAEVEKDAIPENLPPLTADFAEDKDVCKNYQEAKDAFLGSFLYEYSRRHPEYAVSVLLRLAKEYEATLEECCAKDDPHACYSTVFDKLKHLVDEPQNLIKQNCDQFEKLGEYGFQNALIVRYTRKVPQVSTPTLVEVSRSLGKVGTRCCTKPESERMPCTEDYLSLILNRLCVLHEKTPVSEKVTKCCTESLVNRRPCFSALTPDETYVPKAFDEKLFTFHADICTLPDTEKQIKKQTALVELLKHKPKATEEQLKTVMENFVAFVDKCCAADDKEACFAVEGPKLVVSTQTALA
T1 sequence (P04177 whole entry): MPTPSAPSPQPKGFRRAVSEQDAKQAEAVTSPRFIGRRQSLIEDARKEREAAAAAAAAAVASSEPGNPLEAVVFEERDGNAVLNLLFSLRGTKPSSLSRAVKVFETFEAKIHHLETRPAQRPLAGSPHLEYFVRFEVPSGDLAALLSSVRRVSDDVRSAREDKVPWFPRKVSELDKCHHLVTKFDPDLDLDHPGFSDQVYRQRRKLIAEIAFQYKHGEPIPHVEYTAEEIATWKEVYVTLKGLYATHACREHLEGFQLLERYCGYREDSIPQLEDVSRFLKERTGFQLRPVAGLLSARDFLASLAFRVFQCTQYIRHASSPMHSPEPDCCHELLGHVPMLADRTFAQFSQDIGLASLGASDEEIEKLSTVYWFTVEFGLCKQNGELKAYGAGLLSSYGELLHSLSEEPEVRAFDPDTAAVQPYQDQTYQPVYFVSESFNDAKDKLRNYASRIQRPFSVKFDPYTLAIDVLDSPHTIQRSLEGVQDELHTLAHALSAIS

Structure (SMILES) | times less protein reactivity than DOPAL (BSA [6]) | inhibition at 20 µM [3] | change of mitochondrial function (MTT), in words (PC6-3 cells [7]; 2 h, vs control cells) | intracellular concentration (PC6-3 cells [5]; [10]) | inhibition at 20 µM [8] | mitochondrial dysfunction (PC6-3 cells [7]; 2 h, vs control cells) | also measured
O=CCc1ccc(O)c(O)c1 [DOPAL, 3,4-dihydroxyphenylacetaldehyde, reference compound] | – | – | – | – | – | – | hydrogen peroxide production (DCF-DA) (PC6-3 cells [1]): significantly less hydrogen peroxide than controls cells; TH inhibition in cell lysate [2]: ~95%; TH inhibition in PC6-3 cells ([3]; 5 μM placed exogenously, intracellular 4–5 μM): ~ 60%; decrease of DA concentration in PC6-3 cells ([3]; DOPAL-treated cells vs control cells, data not shown): ~ 40%; superoxide anion production (DHE) (PC6-3 cells [4]): significantly different from control cells; intracellular concentration (PC6-3 cells [5]; rat, 5 μM, pH 7.4): 4 to 5 µM
O=CCC=O [MDA, Malondialdehyde, reference compound] | – | – | – | – | – | – | effect on TH activity ([3]; 5 μM, used to inhibit ALDH and AR, data not shown): does not inhibit or alter TH activity
COc1ccc(CC=O)cc1OC [DMPAL, 3,4-Dimethoxyphenylacetaldehyde] | 5 times | ~40% | no significant loss of mitochondrial viability; also recorded: no changes to mitochondrial function; also recorded: no significant toxicity | ~ 9 μM | – | – | –
O=CCc1ccccc1 [PAL, phenylacetaldehyde] | 10 times | ~50% | some concentration-dependent dysfunction | 9 to 12 µM | ~50% | ~ 25% | loss of mitochondrial viability (PC6-3 cells [7]; 10 μM, 2 h, vs control cells): ~ 15%; loss of mitochondrial viability (PC6-3 cells [7]; 25 μM, vs controls): ~ 15%
N#CCc1ccc(O)c(O)c1 [DHPAN, 3,4-Dihydroxyphenylacetonitrile] | – | – | no significant loss of mitochondrial viability; also recorded: no changes to mitochondrial function; also recorded: no significant toxicity | – | – | – | TH inhibition in PC6-3 cells ([3]; 20 μM final concentration): no significant TH inhibition; Relative protein reactivity (NBT staining of BSA) (BSA [9]): no significant staining by NBT
COc1cc(CC=O)ccc1O [MOPAL, 3-methoxy-4-hydroxyphenylacetaldehyde] | 5 times | ~50% | some concentration-dependent dysfunction | – | ~50% | ~ 25% | intracellular concentration (PC6-3 cells [5]; rat, 20 μM, pH 7.4): 9 to 12 µM
